Laboratory results reported in PMC4730229, “Benzobisthiazoles Represent a Novel Scaffold for Kinase Inhibitors of CLK Family Members” (Biochemistry, 2015).

Legend:
Test in all cases: Kinase profiling (radioactive filter binding)
Assay type in all cases: biochemical
Settings in all cases: 1 uM compound
ULK2 = ULK2 (Homo sapiens, UniProt Q8IYT8)
Description: (§1) 3A5 and 5E4 were sent to the International Centre for Kinase Profiling at the MRC Protein Phosphorylation and Ubiquitylation Unit for profiling (as described in ref ([17])). Compounds were profiled against 140 kinases using a radioactive ([^33P]ATP) filter binding assay at a concentration of 1 μM. Results were obtained as inhibition of kinase activity and are listed in Supplementary Table 2.

MPSK1 = MPSK1 (Homo sapiens, UniProt O75716)
MPSK1, sequence (O75716 whole entry): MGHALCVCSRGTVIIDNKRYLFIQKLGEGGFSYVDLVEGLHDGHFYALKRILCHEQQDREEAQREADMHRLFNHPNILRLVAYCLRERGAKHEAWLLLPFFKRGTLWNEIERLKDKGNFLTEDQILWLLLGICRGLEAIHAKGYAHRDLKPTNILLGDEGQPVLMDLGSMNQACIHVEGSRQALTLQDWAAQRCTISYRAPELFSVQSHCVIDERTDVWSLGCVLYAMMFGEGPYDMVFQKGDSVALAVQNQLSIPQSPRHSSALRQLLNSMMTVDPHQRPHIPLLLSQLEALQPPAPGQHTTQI
Description: as §1

MARK3 = MARK3 (Homo sapiens, UniProt P27448)
Description: as §1

ERK5 = ERK5 (Homo sapiens, UniProt Q13164)
Description: as §1

MAPKAP-K2 = MAPKAP-K2 (Homo sapiens, UniProt P49137)
Description: as §1

BRSK2 = BRSK2 (Homo sapiens, UniProt Q8IWQ3)
Description: as §1

TESK1 = TESK1 (Homo sapiens, UniProt Q15569)
Description: as §1

JNK2 = JNK2 (Homo sapiens, UniProt P45984)
JNK2, sequence (P45984 whole entry): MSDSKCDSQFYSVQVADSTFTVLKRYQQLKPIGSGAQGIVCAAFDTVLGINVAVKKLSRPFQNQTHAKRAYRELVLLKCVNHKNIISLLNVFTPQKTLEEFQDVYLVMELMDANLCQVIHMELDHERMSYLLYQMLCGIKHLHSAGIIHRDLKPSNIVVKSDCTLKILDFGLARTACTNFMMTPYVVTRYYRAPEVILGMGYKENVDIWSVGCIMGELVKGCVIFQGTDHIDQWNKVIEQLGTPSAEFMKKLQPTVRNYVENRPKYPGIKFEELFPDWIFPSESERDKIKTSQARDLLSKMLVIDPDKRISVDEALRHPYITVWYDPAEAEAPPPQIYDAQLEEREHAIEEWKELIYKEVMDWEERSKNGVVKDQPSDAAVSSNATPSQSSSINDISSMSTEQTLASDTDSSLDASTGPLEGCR
Description: as §1

ERK2 = ERK2 (Homo sapiens, UniProt P28482)
Description: as §1

EPH-A4 = EPH-A4 (Homo sapiens, UniProt P54764)
Description: as §1

CK2 = CK2 (Homo sapiens, UniProt P68400)
CK2, sequence (P68400 whole entry): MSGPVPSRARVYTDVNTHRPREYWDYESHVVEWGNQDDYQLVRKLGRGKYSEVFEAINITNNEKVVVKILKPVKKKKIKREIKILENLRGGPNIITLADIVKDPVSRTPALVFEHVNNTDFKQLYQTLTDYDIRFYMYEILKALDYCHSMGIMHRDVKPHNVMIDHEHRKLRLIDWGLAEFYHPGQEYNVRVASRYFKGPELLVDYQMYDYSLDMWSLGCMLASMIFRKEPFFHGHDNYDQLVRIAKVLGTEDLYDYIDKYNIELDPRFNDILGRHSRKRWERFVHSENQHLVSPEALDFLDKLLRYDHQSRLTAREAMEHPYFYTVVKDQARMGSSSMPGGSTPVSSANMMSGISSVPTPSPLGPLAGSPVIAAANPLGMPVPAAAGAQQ
Description: as §1

OSR1 = OSR1 (Homo sapiens, UniProt O95747)
Description: as §1

ULK1 = ULK1 (Homo sapiens, UniProt O75385)
Description: as §1

MARK2 = MARK2 (Homo sapiens, UniProt Q7KZI7)
MARK2, sequence (Q7KZI7 whole entry): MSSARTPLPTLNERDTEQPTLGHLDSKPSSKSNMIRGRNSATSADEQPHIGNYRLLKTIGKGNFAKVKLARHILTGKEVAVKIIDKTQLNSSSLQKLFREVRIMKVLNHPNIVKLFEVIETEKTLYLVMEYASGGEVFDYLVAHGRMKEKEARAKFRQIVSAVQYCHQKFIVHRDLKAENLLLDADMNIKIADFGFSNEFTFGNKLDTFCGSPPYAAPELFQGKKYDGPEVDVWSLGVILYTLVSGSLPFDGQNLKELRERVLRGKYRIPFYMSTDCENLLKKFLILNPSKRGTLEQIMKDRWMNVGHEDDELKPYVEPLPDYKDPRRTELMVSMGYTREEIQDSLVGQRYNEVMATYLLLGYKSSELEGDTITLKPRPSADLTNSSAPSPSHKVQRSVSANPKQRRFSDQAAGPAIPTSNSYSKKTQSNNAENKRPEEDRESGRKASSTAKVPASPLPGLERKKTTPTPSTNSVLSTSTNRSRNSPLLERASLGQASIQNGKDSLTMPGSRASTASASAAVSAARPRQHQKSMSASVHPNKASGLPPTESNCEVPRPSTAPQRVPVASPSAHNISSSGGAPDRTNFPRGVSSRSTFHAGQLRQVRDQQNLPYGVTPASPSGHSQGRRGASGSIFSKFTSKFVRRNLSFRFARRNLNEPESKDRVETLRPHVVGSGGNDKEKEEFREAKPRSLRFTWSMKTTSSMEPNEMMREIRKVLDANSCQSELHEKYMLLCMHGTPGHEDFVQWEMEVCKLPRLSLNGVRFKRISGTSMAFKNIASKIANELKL
Description: as §1

IRAK1 = IRAK1 (Homo sapiens, UniProt P51617)
Description: as §1

p38a MAPK = p38a MAPK (Homo sapiens, UniProt Q16539)
Description: as §1

RIPK2 = RIPK2 (Homo sapiens, UniProt O43353)
Description: as §1

NUAK1 = NUAK1 (Homo sapiens, UniProt O60285)
Description: as §1

S6K1 = S6K1 (Homo sapiens, UniProt P23443)
Description: as §1

Src = Src (Homo sapiens, UniProt P12931)
Description: as §1

CAMK1 = CAMK1 (Homo sapiens, UniProt Q14012)
Description: as §1

ABL = ABL (Homo sapiens, UniProt P00519)
Description: as §1

TAO1 = TAO1 (Homo sapiens, UniProt Q7L7X3)
Description: as §1

PKA = PKA (Homo sapiens, UniProt P17612)
Description: as §1

JNK3 = JNK3 (Homo sapiens, UniProt P53779)
Description: as §1

BRSK1 = BRSK1 (Homo sapiens, UniProt Q8TDC3)
BRSK1, sequence (Q8TDC3 whole entry): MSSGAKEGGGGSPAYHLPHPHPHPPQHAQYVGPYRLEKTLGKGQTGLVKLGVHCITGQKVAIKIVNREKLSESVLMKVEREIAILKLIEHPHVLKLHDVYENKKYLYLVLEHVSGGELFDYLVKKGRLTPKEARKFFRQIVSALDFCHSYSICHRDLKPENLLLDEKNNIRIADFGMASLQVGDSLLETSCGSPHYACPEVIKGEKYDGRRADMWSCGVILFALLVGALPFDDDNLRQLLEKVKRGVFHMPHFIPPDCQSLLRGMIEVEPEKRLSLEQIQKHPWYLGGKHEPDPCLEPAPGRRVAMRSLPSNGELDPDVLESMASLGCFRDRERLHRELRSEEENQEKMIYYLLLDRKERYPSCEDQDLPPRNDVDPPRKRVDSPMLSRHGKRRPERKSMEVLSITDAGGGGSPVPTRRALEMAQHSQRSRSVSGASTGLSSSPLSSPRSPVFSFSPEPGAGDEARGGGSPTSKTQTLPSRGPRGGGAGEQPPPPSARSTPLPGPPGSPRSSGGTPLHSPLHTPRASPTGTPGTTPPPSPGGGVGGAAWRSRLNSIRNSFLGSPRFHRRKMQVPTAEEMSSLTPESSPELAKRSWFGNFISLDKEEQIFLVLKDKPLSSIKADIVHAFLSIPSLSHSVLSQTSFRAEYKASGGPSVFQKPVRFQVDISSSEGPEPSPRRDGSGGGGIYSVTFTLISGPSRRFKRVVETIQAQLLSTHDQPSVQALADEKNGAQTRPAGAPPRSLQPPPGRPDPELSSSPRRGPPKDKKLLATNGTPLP
Description: as §1

MSK1 = MSK1 (Homo sapiens, UniProt O75582)
Description: as §1

MST4 = MST4 (Homo sapiens, UniProt Q9P289)
MST4, sequence (Q9P289 whole entry): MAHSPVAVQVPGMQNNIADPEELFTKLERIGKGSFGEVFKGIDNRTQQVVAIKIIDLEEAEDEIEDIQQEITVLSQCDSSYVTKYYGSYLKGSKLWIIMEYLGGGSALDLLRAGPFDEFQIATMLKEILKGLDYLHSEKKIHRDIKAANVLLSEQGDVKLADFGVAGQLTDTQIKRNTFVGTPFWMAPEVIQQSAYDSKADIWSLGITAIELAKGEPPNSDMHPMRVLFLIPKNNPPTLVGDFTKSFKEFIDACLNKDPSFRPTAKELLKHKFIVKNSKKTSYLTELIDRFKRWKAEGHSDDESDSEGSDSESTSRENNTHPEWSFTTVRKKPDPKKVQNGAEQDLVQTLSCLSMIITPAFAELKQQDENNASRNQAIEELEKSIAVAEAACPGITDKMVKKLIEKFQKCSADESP
Description: as §1

SYK = SYK (Homo sapiens, UniProt P43405)
Description: as §1

PAK6 = PAK6 (Homo sapiens, UniProt Q9NQU5)
Description: as §1

IR = IR (Homo sapiens, UniProt P06213)
Description: as §1

Lck = Lck (Homo sapiens, UniProt P06239)
Description: as §1

JNK1 = JNK1 (Homo sapiens, UniProt P45983)
Description: as §1

DYRK2 = DYRK2 (Homo sapiens, UniProt Q92630)
Description: as §1

LKB1 = LKB1 (Homo sapiens, UniProt Q15831)
Description: as §1

HIPK1 = HIPK1 (Homo sapiens, UniProt Q86Z02)
Description: as §1

NEK6 = NEK6 (Homo sapiens, UniProt Q9HC98)
NEK6, sequence (Q9HC98 whole entry): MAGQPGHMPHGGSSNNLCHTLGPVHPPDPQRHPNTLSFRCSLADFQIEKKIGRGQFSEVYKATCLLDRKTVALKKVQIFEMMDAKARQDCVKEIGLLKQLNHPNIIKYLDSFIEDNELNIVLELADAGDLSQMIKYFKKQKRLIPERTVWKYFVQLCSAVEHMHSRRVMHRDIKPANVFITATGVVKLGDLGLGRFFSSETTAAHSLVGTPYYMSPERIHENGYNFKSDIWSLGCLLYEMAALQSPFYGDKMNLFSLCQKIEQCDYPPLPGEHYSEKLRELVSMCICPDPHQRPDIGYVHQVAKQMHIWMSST
Description: as §1

CSK = CSK (Homo sapiens, UniProt P41240)
CSK, sequence (P41240 whole entry): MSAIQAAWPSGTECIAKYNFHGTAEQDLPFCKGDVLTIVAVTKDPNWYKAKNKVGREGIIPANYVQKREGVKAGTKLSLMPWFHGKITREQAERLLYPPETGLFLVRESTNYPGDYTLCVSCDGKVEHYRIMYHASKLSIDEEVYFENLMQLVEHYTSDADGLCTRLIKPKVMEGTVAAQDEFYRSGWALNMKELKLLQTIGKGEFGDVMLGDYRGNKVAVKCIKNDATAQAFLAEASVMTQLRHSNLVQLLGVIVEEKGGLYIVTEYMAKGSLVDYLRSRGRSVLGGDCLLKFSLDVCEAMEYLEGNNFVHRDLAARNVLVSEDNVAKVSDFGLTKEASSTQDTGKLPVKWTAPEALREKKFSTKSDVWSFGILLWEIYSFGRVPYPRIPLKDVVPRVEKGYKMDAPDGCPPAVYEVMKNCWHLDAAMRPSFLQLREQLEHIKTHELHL
Description: as §1

PAK2 = PAK2 (Homo sapiens, UniProt Q13177)
Description: as §1

MST2 = MST2 (Homo sapiens, UniProt Q13188)
Description: as §1

IKKe = IKKe (Homo sapiens, UniProt Q14164)
Description: as §1

MLK1 = MLK1 (Homo sapiens, UniProt P80192)
MLK1, sequence (P80192 whole entry): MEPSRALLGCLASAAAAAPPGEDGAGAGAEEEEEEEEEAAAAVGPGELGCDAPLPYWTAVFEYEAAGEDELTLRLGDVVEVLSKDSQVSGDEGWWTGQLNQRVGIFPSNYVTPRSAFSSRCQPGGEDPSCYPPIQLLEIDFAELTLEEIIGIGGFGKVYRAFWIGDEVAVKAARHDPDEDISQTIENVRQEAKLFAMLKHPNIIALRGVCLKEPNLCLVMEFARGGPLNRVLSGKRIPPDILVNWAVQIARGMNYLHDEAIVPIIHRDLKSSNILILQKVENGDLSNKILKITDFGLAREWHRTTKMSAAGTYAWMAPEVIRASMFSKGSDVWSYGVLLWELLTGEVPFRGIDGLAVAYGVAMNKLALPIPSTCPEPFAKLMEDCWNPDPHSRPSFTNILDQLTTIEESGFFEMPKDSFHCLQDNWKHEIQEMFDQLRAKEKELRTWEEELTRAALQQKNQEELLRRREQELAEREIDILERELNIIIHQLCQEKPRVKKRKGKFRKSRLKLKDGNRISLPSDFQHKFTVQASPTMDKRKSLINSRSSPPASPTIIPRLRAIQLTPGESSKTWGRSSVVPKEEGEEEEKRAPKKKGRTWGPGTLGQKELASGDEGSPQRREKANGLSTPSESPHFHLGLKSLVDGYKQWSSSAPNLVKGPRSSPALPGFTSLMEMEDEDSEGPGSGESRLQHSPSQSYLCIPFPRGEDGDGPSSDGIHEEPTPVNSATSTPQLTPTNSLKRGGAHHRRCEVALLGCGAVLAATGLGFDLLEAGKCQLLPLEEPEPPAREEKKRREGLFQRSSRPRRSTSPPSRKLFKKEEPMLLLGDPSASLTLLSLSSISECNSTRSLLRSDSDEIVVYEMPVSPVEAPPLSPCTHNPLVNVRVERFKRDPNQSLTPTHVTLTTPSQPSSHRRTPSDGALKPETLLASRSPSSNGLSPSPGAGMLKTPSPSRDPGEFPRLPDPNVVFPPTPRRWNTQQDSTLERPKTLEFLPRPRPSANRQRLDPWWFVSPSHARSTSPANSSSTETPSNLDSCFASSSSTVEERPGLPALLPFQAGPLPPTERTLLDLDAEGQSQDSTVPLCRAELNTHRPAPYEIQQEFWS
Description: as §1

ROCK 2 = ROCK 2 (Rattus norvegicus, UniProt Q62868)
Description: as §1

CSc1nc2ccc3nc(NC(=O)c4ccco4)sc3c2s1 [5E4, N-[7-(methylsulfanyl)[1,3]thiazolo[4,5-g][1,3]benzothiazol-2-yl]-2-furamide]
ULK2 activity in kinase profiling (ULK2): 81
MPSK1 activity in kinase profiling (MPSK1): 114
MARK3 activity in kinase profiling (MARK3): 83
ERK5 activity in kinase profiling (ERK5): 39
MAPKAP-K2 activity in kinase profiling (MAPKAP-K2): 92
BRSK2 activity in kinase profiling (BRSK2): 83
TESK1 activity in kinase profiling (TESK1): 95
JNK2 activity in kinase profiling (JNK2): 107
ERK2 activity in kinase profiling (ERK2): 112
EPH-A4 activity in kinase profiling (EPH-A4): 112
CK2 activity in kinase profiling (CK2): 77
OSR1 activity in kinase profiling (OSR1): 111
ULK1 activity in kinase profiling (ULK1): 127
MARK2 activity in kinase profiling (MARK2): 90
IRAK1 activity in kinase profiling (IRAK1): 87
p38a MAPK activity in kinase profiling (p38a MAPK): 96
RIPK2 activity in kinase profiling (RIPK2): 34
NUAK1 activity in kinase profiling (NUAK1): 82
S6K1 activity in kinase profiling (S6K1): 80
Src activity in kinase profiling (Src): 79
CAMK1 activity in kinase profiling (CAMK1): 106
ABL activity in kinase profiling (ABL): 61
TAO1 activity in kinase profiling (TAO1): 99
PKA activity in kinase profiling (PKA): 97
JNK3 activity in kinase profiling (JNK3): 123
BRSK1 activity in kinase profiling (BRSK1): 86
MSK1 activity in kinase profiling (MSK1): 109
MST4 activity in kinase profiling (MST4): 93
SYK activity in kinase profiling (SYK): 102
PAK6 activity in kinase profiling (PAK6): 104
IR activity in kinase profiling (IR): 116
Lck activity in kinase profiling (Lck): 101
JNK1 activity in kinase profiling (JNK1): 91
DYRK2 activity in kinase profiling (DYRK2): 9
LKB1 activity in kinase profiling (LKB1): 79
HIPK1 activity in kinase profiling (HIPK1): 25
NEK6 activity in kinase profiling (NEK6): 91
CSK activity in kinase profiling (CSK): 99
PAK2 activity in kinase profiling (PAK2): 97
MST2 activity in kinase profiling (MST2): 129
IKKe activity in kinase profiling (IKKe): 102
MLK1 activity in kinase profiling (MLK1): 25
ROCK 2 activity in kinase profiling (ROCK 2): 96

Cc1nc2ccc3sc(NC(=O)c4ccc5ncsc5c4)nc3c2s1 [3A5, N-(2-methyl[1,3]thiazolo[5,4-e][1,3]benzothiazol-7-yl)-1,3-benzothiazole-6-carboxamide]
ULK2 activity in kinase profiling (ULK2): 92
MPSK1 activity in kinase profiling (MPSK1): 150
MARK3 activity in kinase profiling (MARK3): 91
ERK5 activity in kinase profiling (ERK5): 39
MAPKAP-K2 activity in kinase profiling (MAPKAP-K2): 107
BRSK2 activity in kinase profiling (BRSK2): 88
TESK1 activity in kinase profiling (TESK1): 96
JNK2 activity in kinase profiling (JNK2): 100
ERK2 activity in kinase profiling (ERK2): 109
EPH-A4 activity in kinase profiling (EPH-A4): 120
CK2 activity in kinase profiling (CK2): 105
OSR1 activity in kinase profiling (OSR1): 101
ULK1 activity in kinase profiling (ULK1): 138
MARK2 activity in kinase profiling (MARK2): 87
IRAK1 activity in kinase profiling (IRAK1): 88
p38a MAPK activity in kinase profiling (p38a MAPK): 94
RIPK2 activity in kinase profiling (RIPK2): 83
NUAK1 activity in kinase profiling (NUAK1): 73
S6K1 activity in kinase profiling (S6K1): 72
Src activity in kinase profiling (Src): 89
CAMK1 activity in kinase profiling (CAMK1): 85
ABL activity in kinase profiling (ABL): 102
TAO1 activity in kinase profiling (TAO1): 94
PKA activity in kinase profiling (PKA): 98
JNK3 activity in kinase profiling (JNK3): 107
BRSK1 activity in kinase profiling (BRSK1): 101
MSK1 activity in kinase profiling (MSK1): 86
MST4 activity in kinase profiling (MST4): 90
SYK activity in kinase profiling (SYK): 99
PAK6 activity in kinase profiling (PAK6): 96
IR activity in kinase profiling (IR): 127
Lck activity in kinase profiling (Lck): 116
JNK1 activity in kinase profiling (JNK1): 67
DYRK2 activity in kinase profiling (DYRK2): 61
LKB1 activity in kinase profiling (LKB1): 79
HIPK1 activity in kinase profiling (HIPK1): 105
NEK6 activity in kinase profiling (NEK6): 104
CSK activity in kinase profiling (CSK): 93
PAK2 activity in kinase profiling (PAK2): 92
MST2 activity in kinase profiling (MST2): 119
IKKe activity in kinase profiling (IKKe): 107
MLK1 activity in kinase profiling (MLK1): 73
ROCK 2 activity in kinase profiling (ROCK 2): 68
